In PMC3169398 (Acta Crystallographica Section F: Structural Biology and …, 2011):

Legend:
[1] = target: T1, Bp PPAT (tagged, MAHHHHHHMGTLEAQTQGPGS-ORF) (Burkholderia pseudomallei, UniProt Q3JW91); conditions: pH 4.6, 0.2 M ammonium sulfate, PEG 2000 MME; 1 mM coenzyme A added; active site; moiety of hydrolysed or disordered coenzyme A; weak density, adenine possibly partially occupied; may be part of disor
T1 construct: gene coaD

[2] = target: T2, Bp PPAT (tagless, GPGS-ORF) (Burkholderia pseudomallei, UniProt Q3JW91); conditions: 2.0 M ammonium sulfate; 10 mM ATP added to protein; ligand carried over from E. coli host; active site; occupancy 0.5
T2 construct: gene coaD
T2 sequence (Q3JW91 whole entry, looked up): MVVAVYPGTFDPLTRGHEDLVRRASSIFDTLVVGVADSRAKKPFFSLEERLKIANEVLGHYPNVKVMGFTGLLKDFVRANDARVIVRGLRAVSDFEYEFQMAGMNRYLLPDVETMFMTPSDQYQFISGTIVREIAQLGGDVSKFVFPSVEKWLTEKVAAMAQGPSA

T1 sequence (Q3JW91 whole entry, looked up): as above

| SMILES | X-ray crystal structure, 1.6 Å [1] | X-ray crystal structure, 2.1 Å [2] |
| --- | --- | --- |
| Nc1ncnc2[nH]cnc12 [adenine] | We noted modest omit electron density for the adenine ring, which was also modelled |  |
| CC(C)(COP(=O)(O)OP(=O)(O)OC[C@H]1O[C@@H](n2cnc3c(N)ncnc32)[C@H](O)[C@@H]1O)[C@@H](O)C(=O)NCCC(=O)NCCS [dephospho-coenzyme A] |  | clear evidence but weak electron density for dephospho-coenzyme A in the active site |
